In one assay the target is T1, mouse Pih1-PIH domain (Mus musculus, UniProt Q9CQJ2).
T1 construct: We determined the crystal structure of the mouse PIH domain^1–200; His (N); made in house
Put plainly: ITC, phosphopeptide binding to Pih1 PIH domain. The settings on record: 30°C; for Kd: 20 mM Tris pH 7.5, 5 mM NaCl, peptides at 350 μM injected into 30 μM Pih1. How it is done:
(§1) Heat of interaction was measured on an ITC200 microcalorimeter (Microcal) under the same buffer conditions (20 mM Tris, pH 7.5, containing 5 mM NaCl). Aliquots of the Tel2 peptides at 350 μM were injected into 30 μM of Pih1 at 30°C. Interactions with Tah1 or Spagh/RPAP3^120–395 were performed in 10 mM Tris pH 7.5 and 5 mM NaCl at 10°C and 30°C. Aliquots of 600 μM Tah1 were injected into 40 μM of yeast Hsp90, 400 μM of SRMEEVD injected into 30 μM Tah1, 301 μM yeast Hsp90 injected into 25 μM yeast Tah1-Pih1 complex, and 400 μM SRMEEVD injected into 30 μM yeast Tah1-Pih1 complex. For Spagh/RPAP3^120–395 experiments, aliquots of 500 μM yeast Hsp90 were injected into 20 μM Spagh/RPAP3^120–395 or 2 mM […] into 80 μM Spagh/RPAP3^120–395 or mutants (N172E, N321E, and N172E-N321E). Heats of dilution were determined by diluting injectant into buffer. Data were fitted using a curve-fitting algorithm (Microcal Origin). ATPase assays were previously described ([Prodromou et al., 1999]).

A further assay addresses yeast Hsp90. Put plainly: ITC, binding of Tah1 or Tah1-Pih1 complex to Hsp90 dimer. The settings on record: for Kd: 10 mM Tris pH 7.5, 5 mM NaCl, 600 μM Tah1 into 40 μM yeast Hsp90, or 301 μM yeast Hsp90 into 25 μM yeast Tah1-Pih1 complex; for N (sites) / ΔH / ΔS: same titrations as KD. Here is the method: as §1

Values joined by “and” are separate entries in the source; they are usually repeats but may differ in a detail not shown here. Identical values can stand only once. Square brackets hold non-standard residues; d marks the D form. Peptide text beside a SMILES is read from it. pS = N[C@@H](COP(=O)(O)O)C(=O)O

T1 sequence (Q9CQJ2 1-200): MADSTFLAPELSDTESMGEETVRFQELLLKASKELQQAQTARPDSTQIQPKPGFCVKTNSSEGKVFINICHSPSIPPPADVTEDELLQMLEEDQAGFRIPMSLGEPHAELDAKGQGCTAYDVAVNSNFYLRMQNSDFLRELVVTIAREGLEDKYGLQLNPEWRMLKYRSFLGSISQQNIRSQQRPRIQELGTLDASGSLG

At mouse Pih1-PIH domain, `CC[C@H](C)[C@H](NC(=O)[C@H](CO)NC(=O)[C@H](CC(=O)O)NC(=O)[C@H](CC(=O)O)NC(=O)[C@H](COP(=O)(O)O)NC(=O)[C@H](CC(=O)O)NC(=O)[C@H](CC(N)=O)NC(=O)[C@H](C)NC(=O)[C@@H](N)CCSC)C(=O)O` [Mre11 phosphoserine peptide] (H-MAND[pS]DDSI-OH; N-terminus and C-terminus assumed) showed a ΔH of -7.313 ± 0.3547 kcal/mol and a ΔS of -0.36 cal/mol/deg. Further, at mouse Pih1-PIH domain (fitted), the N came to 0.76 ± 0.03 sites.

In the case of `CC(C)C[C@H](NC(=O)[C@H](CCC(=O)O)NC(=O)[C@H](COP(=O)(O)O)NC(=O)[C@H](CC(=O)O)NC(=O)[C@H](COP(=O)(O)O)NC(=O)CNC(=O)[C@@H](N)CCC(N)=O)C(=O)N[C@@H](CC(=O)O)C(=O)N[C@@H](CO)C(=O)N[C@@H](CC(=O)O)C(=O)N[C@@H](CC(=O)O)C(=O)N[C@@H](CCC(=O)O)C(=O)N[C@@H](Cc1ccccc1)C(=O)O` [pS486, pS488-Tel2], the Kd at mouse Pih1-PIH domain is 37.9 µM.

For the compound `CC(C)C[C@H](NC(=O)[C@H](CCC(=O)O)NC(=O)[C@H](CO)NC(=O)[C@H](CC(=O)O)NC(=O)[C@H](COP(=O)(O)O)NC(=O)CNC(=O)[C@@H](N)CCC(N)=O)C(=O)N[C@@H](CC(=O)O)C(=O)N[C@@H](CO)C(=O)N[C@@H](CC(=O)O)C(=O)N[C@@H](CC(=O)O)C(=O)N[C@@H](CCC(=O)O)C(=O)N[C@@H](Cc1ccccc1)C(=O)O` [pS486-Tel2], at mouse Pih1-PIH domain, the Kd was 115 µM and > 100 µM.

Regarding `CC(C)C[C@H](NC(=O)[C@H](CCC(=O)O)NC(=O)[C@H](COP(=O)(O)O)NC(=O)[C@H](CC(=O)O)NC(=O)[C@H](CO)NC(=O)CNC(=O)[C@@H](N)CCC(N)=O)C(=O)N[C@@H](CC(=O)O)C(=O)N[C@@H](COP(=O)(O)O)C(=O)N[C@@H](CC(=O)O)C(=O)N[C@@H](CC(=O)O)C(=O)N[C@@H](CCC(=O)O)C(=O)N[C@@H](Cc1ccccc1)C(=O)O` [pS488,pS492-Tel2], the Kd at mouse Pih1-PIH domain turned out to be 0.17 µM.

On to `CC(C)C[C@H](NC(=O)[C@H](CCC(=O)O)NC(=O)[C@H](COP(=O)(O)O)NC(=O)[C@H](CC(=O)O)NC(=O)[C@H](CO)NC(=O)CNC(=O)[C@@H](N)CCC(N)=O)C(=O)N[C@@H](CC(=O)O)C(=O)N[C@@H](CO)C(=O)N[C@@H](CC(=O)O)C(=O)N[C@@H](CC(=O)O)C(=O)N[C@@H](CCC(=O)O)C(=O)N[C@@H](Cc1ccccc1)C(=O)O` [pS488-Tel2], for which the affinity at mouse Pih1-PIH domain, expressed as Kd, was 15.3 µM.

Compound `CC(C)C[C@H](NC(=O)[C@H](CCC(=O)O)NC(=O)[C@H](CO)NC(=O)[C@H](CC(=O)O)NC(=O)[C@H](CO)NC(=O)CNC(=O)[C@@H](N)CCC(N)=O)C(=O)N[C@@H](CC(=O)O)C(=O)N[C@@H](COP(=O)(O)O)C(=O)N[C@@H](CC(=O)O)C(=O)N[C@@H](CC(=O)O)C(=O)N[C@@H](CCC(=O)O)C(=O)N[C@@H](Cc1ccccc1)C(=O)O` [pS492-Tel2] gave a Kd on mouse Pih1-PIH domain of 0.39 µM.

On to “Tah1-Pih1 complex: pre-assembled full-length yeast Tah1-Pih1 complex”, for which, on yeast Hsp90, the Kd was determined as 4 µM, the “N (sites)” value came out at 0.93 ± 0.04 sites, the ΔH is -7.595 ± 0.404 kcal/mol and the ΔS is -0.367 cal/mol/deg.

As for “Tah1: yeast TPR-domain protein, Hsp90 cochaperone of the R2TP complex”, at yeast Hsp90, the Kd was determined as 5.9 µM, the “N (sites)” value was 0.68 ± 0.01 sites, the ΔH is -8.445 ± 0.1642 kcal/mol and the ΔS is -3.95 cal/mol/deg.

Source of the values: PMC4058522, “Structural Basis for Phosphorylation-Dependent Recruitment of Tel2 to Hsp90 by Pih1” (Structure(London, England:1993), 2014).
